Results taken from patent publication US20250230193A1, “CYCLIC COMPOUND HAVING SELECTIVE KRAS INHIBITORY EFFECT ON HRAS AND NRAS” (CHUGAI SEIYAKU KABUSHIKI KAISHA, priority 2022, published 2025).
Where a SMILES comes first, the peptide text is derived from it. Bridges are numbered along the chain shown (N, C = ends). [ ]: non-standard residue; d: D form. The star is where a group is joined. hPhe(3,5-F2-4-CF3) = N[C@@H](CCc1cc(F)c(C(F)(F)F)c(F)c1)C(=O)O; hPhe(3-Cl-4-CF3) = N[C@@H](CCc1ccc(C(F)(F)F)c(Cl)c1)C(=O)O; NPrPhe(4-CF3) = CCCN[C@@H](Cc1ccc(C(F)(F)F)cc1)C(=O)O; NMeGly(cPent) = CN[C@H](C(=O)O)C1CCCC1; NMeD = CN[C@@H](CC(=O)O)C(=O)O; NMeL = CN[C@@H](CC(C)C)C(=O)O; NMeNva = CCC[C@H](NC)C(=O)O; αMeS = C[C@](N)(CO)C(=O)O; Morpholide = C1CN(*)CCO1; NMeA = CN[C@@H](C)C(=O)O; Ac5c = NC1(C(=O)O)CCCC1; Aze = O=C(O)[C@@H]1CCN1; Sar = CNCC(=O)O

How the values were obtained:
[1] = molecular target: GDP-bound NRAS wild-type protein (Homo sapiens, UniProt P01111); experiment: Binding to NRAS by surface plasmon resonance (SPR), Single Cycle Kinetics; conditions: SPR; for NRAS/KRAS (ratio of KD value for NRAS to KD value for KRAS) / NRAS/KRAS (ratio of KD value with respect to NRAS to KD value with respect to KRAS): GDP-bound NRAS wild-type vs GDP-bound KRAS wild-type
[2] = molecular target: GDP-bound HRAS wild-type protein (Homo sapiens, UniProt P01112); experiment: Binding to HRAS by surface plasmon resonance (SPR), Single Cycle Kinetics; conditions: SPR; for HRAS/KRAS (ratio of KD value for HRAS to KD value for KRAS) / HRAS/KRAS (ratio of KD value with respect to HRAS to KD value with respect to KRAS): GDP-bound HRAS wild-type vs GDP-bound KRAS wild-type
GDP-bound HRAS wild-type protein, sequence (P01112 whole entry): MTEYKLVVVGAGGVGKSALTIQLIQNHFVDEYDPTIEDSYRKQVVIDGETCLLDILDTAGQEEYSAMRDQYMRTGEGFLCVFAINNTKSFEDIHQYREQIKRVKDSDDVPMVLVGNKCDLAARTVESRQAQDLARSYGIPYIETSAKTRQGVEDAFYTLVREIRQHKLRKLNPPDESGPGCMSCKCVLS

GDP-bound NRAS wild-type protein, sequence (P01111 whole entry): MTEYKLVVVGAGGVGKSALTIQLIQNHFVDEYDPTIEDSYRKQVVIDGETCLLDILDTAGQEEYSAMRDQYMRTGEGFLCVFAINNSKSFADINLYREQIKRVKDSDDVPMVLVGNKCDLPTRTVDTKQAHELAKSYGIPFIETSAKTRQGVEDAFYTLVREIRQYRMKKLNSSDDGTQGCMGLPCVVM

CC[C@H](C)[C@@H]1NC(=O)[C@H](CC2CC2)N(C)C(=O)C[C@@H](C(=O)N(C)C)N(C)C(=O)[C@H](C2CCCC2)N(C)C(=O)C2(CCC2)N(C)C(=O)[C@@H]2CCCN2C(=O)[C@H](CCc2cc(F)c(C(F)(F)F)c(F)c2)NC(=O)CN(C)C(=O)[C@H](Cc2ccc(C)cc2)N2CC/C=C\C[C@@H](C2=O)N(C)C(=O)CN(C)C1=O [PP1796]
NRAS/KRAS (ratio of KD value for NRAS to KD value for KRAS) ([1]; KD ratio): A (a compound having 10 or more and less than 20 is denoted as A)
HRAS/KRAS (ratio of KD value for HRAS to KD value for KRAS) ([2]; KD ratio): B (a compound having 3 or more and less than 10 is denoted as B)

CCC[C@H]1C(=O)N[C@@H]([C@@H](C)CC)C(=O)N(C)CC(=O)N(C)[C@H]2C/C=C\CCN(C2=O)[C@@H](Cc2ccc(C)cc2)C(=O)N(C)CC(=O)N[C@@H](CCc2ccc(C(F)(F)F)c(Cl)c2)C(=O)N2C[C@H](OCC)C[C@H]2C(=O)NC2(CC(C)(C)C2)C(=O)N(C)[C@@H](CC(C)C)C(=O)N(C)[C@H](C(=O)N(C)C)CC(=O)N1C [PP2224]
NRAS/KRAS (ratio of KD value with respect to NRAS to KD value with respect to KRAS) [1]: A (a compound having 10 or more and less than 20 is denoted as A)
HRAS/KRAS (ratio of KD value with respect to HRAS to KD value with respect to KRAS) [2]: A (a compound having 10 or more and less than 20 is denoted as A)

CCCN1C(=O)CN(C)C(=O)CN(C)C(=O)[C@H]([C@@H](C)CC)NC(=O)[C@H](CC(C)C)N(C)C(=O)C[C@@H](C(=O)N2CCOCC2)N(C)C(=O)[C@H](C2CCCC2)N(C)C(=O)[C@](C)(COC)NC(=O)[C@@H]2CCCN2C(=O)[C@H](CCc2cc(F)c(C(F)(F)F)c(F)c2)NC(=O)CN(C)C(=O)[C@@H]1Cc1ccc(C(F)(F)F)cc1 [PP0762] ([NMeL]I[Sar][Sar][NPrPhe(4-CF3)][Sar][hPhe(3,5-F2-4-CF3)]P[αMeS](Me)[NMeGly(cPent)][NMeD]-Morpholide; lactam N-11)
NRAS/KRAS (ratio of KD value with respect to GDP-bound NRAS wild-type protein to KD value with respect to KRAS) ([1]; KD ratio NRAS/KRAS): B (a compound having 3 or more and less than 10 is denoted as B)
HRAS/KRAS (ratio of KD value with respect to GDP-bound HRAS wild-type protein to KD value with respect to KRAS) ([2]; KD ratio HRAS/KRAS): B (a compound having 3 or more and less than 10 is denoted as B)

CC[C@H](C)[C@@H]1NC(=O)[C@H](COC)N(C)C(=O)C[C@@H](C(=O)N2CCOCC2)N(C)C(=O)[C@H](C2CCCC2)N(C)C(=O)C2(CCC2)NC(=O)[C@@H]2C[C@@H](OC)CN2C(=O)[C@H](CCc2cc(F)c(C(F)(F)F)c(F)c2)NC(=O)CN(C)C(=O)[C@H](Cc2ccc(C(F)(F)F)cc2)N2CCCCC[C@@H](C2=O)N(C)C(=O)CN(C)C1=O [PP0837]
NRAS/KRAS (ratio of KD value with respect to NRAS to KD value with respect to KRAS) ([1]; KD ratio): B (a compound having 3 or more and less than 10 is denoted as B)
HRAS/KRAS (ratio of KD value with respect to HRAS to KD value with respect to KRAS) ([2]; KD ratio): B (a compound having 3 or more and less than 10 is denoted as B)

CCO[C@@H]1C[C@H]2C(=O)NC3(CCC3)C(=O)N(C)[C@@H](C3CCCC3)C(=O)N(C)[C@H](C(=O)N(C)C)CC(=O)N(C)[C@@H](CC(C)C)C(=O)N[C@@H]([C@@H](C)CC)C(=O)N(C)CC(=O)N(C)[C@H]3CCCCCN(C3=O)[C@@H](Cc3ccc(C(F)(F)F)cc3)C(=O)N(C)CC(=O)N[C@@H](CCc3cc(F)c(C(F)(F)F)c(F)c3)C(=O)N2C1 [PP0469]
NRAS/KRAS (ratio of KD value with respect to GDP-bound NRAS wild-type protein to KD value with respect to KRAS) ([1]; KD ratio NRAS/KRAS): B (a compound having 3 or more and less than 10 is denoted as B)
HRAS/KRAS (ratio of KD value with respect to GDP-bound HRAS wild-type protein to KD value with respect to KRAS) ([2]; KD ratio HRAS/KRAS): B (a compound having 3 or more and less than 10 is denoted as B)

CCO[C@@H]1C[C@H]2C(=O)NC3(CC(C)(C)C3)C(=O)N(C)[C@@H](C3CCCC3)C(=O)N(C)[C@H](C(=O)N3CCOCC3)CC(=O)N(C)[C@@H](COC)C(=O)N[C@@H]([C@@H](C)CC)C(=O)N(C)CC(=O)N(C)[C@H]3CCCCCN(C3=O)[C@@H](Cc3ccc(C(F)(F)F)cc3)C(=O)N(C)CC(=O)N[C@@H](CCc3cc(F)c(C(F)(F)F)c(F)c3)C(=O)N2C1 [PP0844]
NRAS/KRAS (ratio of KD value with respect to NRAS to KD value with respect to KRAS) ([1]; KD ratio): B (a compound having 3 or more and less than 10 is denoted as B)
HRAS/KRAS (ratio of KD value with respect to HRAS to KD value with respect to KRAS) ([2]; KD ratio): B (a compound having 3 or more and less than 10 is denoted as B)

CCCN(C)C(=O)[C@@H]1CC(=O)N(C)[C@@H](CC(F)F)C(=O)N[C@@H]([C@@H](C)CC)C(=O)N(C)CC(=O)N(C)[C@H]2C/C=C\CCN(C2=O)[C@@H](Cc2ccc(C(F)(F)F)cc2)C(=O)N(C)CC(=O)N[C@@H](CCc2cc(F)c(C(F)(F)F)c(F)c2)C(=O)N2CCC[C@H]2C(=O)NC2(CC(C)(C)C2)C(=O)N(C)[C@@H](C2CCCC2)C(=O)N1C [PP1721]
NRAS/KRAS (ratio of KD value for NRAS to KD value for KRAS) ([1]; KD ratio): A (a compound having 10 or more and less than 20 is denoted as A)
HRAS/KRAS (ratio of KD value for HRAS to KD value for KRAS) ([2]; KD ratio): A (a compound having 10 or more and less than 20 is denoted as A)

CCC[C@H]1C(=O)N[C@@H]([C@@H](C)CC)C(=O)N2CCC[C@H]2C(=O)N(C)[C@H]2C/C=C\CCN(C2=O)[C@@H](Cc2ccc(C)cc2)C(=O)N(C)CC(=O)N[C@@H](CCc2cc(F)c(C(F)(F)F)c(F)c2)C(=O)N2C[C@H](OCC)C[C@H]2C(=O)N(C)C2(CCC2)C(=O)N(C)[C@@H](C2CCCC2)C(=O)N(C)[C@H](C(=O)N2CCCC2)CC(=O)N1C [PP3117, (1S,4S,10S,13S,17S,20S,26S,28R,32S,38S,42Z)-20-cyclopentyl-32-[2-[3,5-difluoro-4-(trifluoromethyl)phenyl]ethyl]-28-ethoxy-2,14,18,21,24,36-hexamethyl-10-[(1S)-1-methylpropyl]-13-propyl-38-(p-tolylmethyl)-17-(pyrrolidine-1-carbonyl)spiro[2,8,11,14,18,21,24,30,33,36,39-undecazatetracyclo[37.5.1.0^4,8.0^26,30]pentatetracont-42-ene-23,1′-cyclobutane]-3,9,12,15,19,22,25,31,34,37,45-undecone]
NRAS/KRAS (ratio of KD value with respect to GDP-bound NRAS wild-type protein to KD value with respect to KRAS) ([1]; KD ratio NRAS/KRAS, GDP-bound wild-type proteins): A (a compound having 10 or more and less than 20 is denoted as A)
HRAS/KRAS (ratio of KD value with respect to GDP-bound HRAS wild-type protein to KD value with respect to KRAS) ([2]; KD ratio HRAS/KRAS, GDP-bound wild-type proteins): A (a compound having 10 or more and less than 20 is denoted as A)

CCC[C@H]1C(=O)N[C@@H]([C@@H](C)CC)C(=O)N(C)[C@@H](C)C(=O)N2CC[C@H]2C(=O)N(CCC)[C@@H](Cc2ccc(C(F)(F)F)cc2)C(=O)N(C)CC(=O)N[C@@H](CCc2ccc(C(F)(F)F)c(Cl)c2)C(=O)N2CCC[C@H]2C(=O)NC2(CCCC2)C(=O)N(C)[C@@H](C2CCCC2)C(=O)N(C)[C@H](C(=O)N2CCOCC2)CC(=O)N1C [PP0193] ([NMeNva]I[NMeA][Aze][NPrPhe(4-CF3)][Sar][hPhe(3-Cl-4-CF3)]P[Ac5c][NMeGly(cPent)][NMeD]-Morpholide; lactam N-11)
NRAS/KRAS (ratio of KD for GDP-bound NRAS wild-type to KD for KRAS) ([1]; KD ratio NRAS/KRAS): C (A compound having a KD ratio of 0.1 or more and less than 3 is denoted as C)
HRAS/KRAS (ratio of KD for GDP-bound HRAS wild-type to KD for KRAS) ([2]; KD ratio HRAS/KRAS): C (A compound having a KD ratio of 0.1 or more and less than 3 is denoted as C)

CCO[C@@H]1C[C@H]2C(=O)NC3(CC(C)(C)C3)C(=O)N(C)[C@@H](C(CC)CC)C(=O)N(C)[C@H](C(=O)N3CCCC3)CC(=O)N(C)[C@@H](CC)C(=O)N[C@@H]([C@@H](C)CC)C(=O)N(C)CC(=O)N(C)[C@H]3C/C=C\CCN(C3=O)[C@@H](Cc3ccc(C)cc3)C(=O)N(C)CC(=O)N[C@@H](CCc3ccc(C(F)(F)F)c(OC)c3)C(=O)N2C1 [PP2171]
NRAS/KRAS (ratio of KD value with respect to NRAS to KD value with respect to KRAS) [1]: A (a compound having 10 or more and less than 20 is denoted as A)
HRAS/KRAS (ratio of KD value with respect to HRAS to KD value with respect to KRAS) [2]: A (a compound having 10 or more and less than 20 is denoted as A)

CCO[C@@H]1C[C@H]2C(=O)NC3(CCC3)C(=O)N(C)[C@@H](C3CCCC3)C(=O)N(C)[C@H](C(=O)N3CCOCC3)CC(=O)N(C)[C@@H](CC(C)C)C(=O)N[C@@H]([C@H](C)CC)C(=O)N(C)CC(=O)N(C)[C@H]3CCCCN(C3=O)[C@@H](Cc3ccc(C(F)(F)F)cc3)C(=O)N(C)CC(=O)N[C@@H](CCc3cc(F)c(C(F)(F)F)c(F)c3)C(=O)N2C1 [PP0806]
NRAS/KRAS (ratio of KD value with respect to GDP-bound NRAS wild-type protein to KD value with respect to KRAS) ([1]; KD ratio NRAS/KRAS): B (a compound having 3 or more and less than 10 is denoted as B)
HRAS/KRAS (ratio of KD value with respect to GDP-bound HRAS wild-type protein to KD value with respect to KRAS) ([2]; KD ratio HRAS/KRAS): B (a compound having 3 or more and less than 10 is denoted as B)

CC[C@H](C)[C@@H]1NC(=O)[C@H](CC)N(C)C(=O)C[C@@H](C(=O)N2CCOCC2)N(C)C(=O)[C@H](C2CCCC2)N(C)C(=O)C2(CCCC2)NC(=O)[C@@H]2CCCN2C(=O)[C@H](CCc2cc(F)c(C(F)(F)F)c(F)c2)NC(=O)CN(C)C(=O)[C@H](Cc2ccc(C(F)(F)F)cc2)N2CCCC[C@@H](C2=O)N(C)C(=O)CN(C)C1=O [PP0550]
NRAS/KRAS (ratio of KD value with respect to GDP-bound NRAS wild-type protein to KD value with respect to KRAS) ([1]; KD ratio NRAS/KRAS): B (a compound having 3 or more and less than 10 is denoted as B)
HRAS/KRAS (ratio of KD value with respect to GDP-bound HRAS wild-type protein to KD value with respect to KRAS) ([2]; KD ratio HRAS/KRAS): B (a compound having 3 or more and less than 10 is denoted as B)

CCO[C@@H]1C[C@H]2C(=O)NC3(CC(C)(C)C3)C(=O)N(C)[C@@H](C3CCCC3)C(=O)N(C)[C@H](C(=O)N(C)C)CC(=O)N3CCCCC[C@H]3C(=O)N[C@@H]([C@@H](C)CC)C(=O)N(C)CC(=O)N(C)[C@H]3C/C=C\CCN(C3=O)[C@@H](Cc3ccc(C(F)(F)F)cc3)C(=O)N(C)CC(=O)N[C@@H](CCc3cc(F)c(C(F)(F)F)c(F)c3)C(=O)N2C1 [PP1915]
NRAS/KRAS (ratio of KD value for NRAS to KD value for KRAS) ([1]; KD ratio): A (a compound having 10 or more and less than 20 is denoted as A)
HRAS/KRAS (ratio of KD value for HRAS to KD value for KRAS) ([2]; KD ratio): A (a compound having 10 or more and less than 20 is denoted as A)
